Experimental data published in PMC10467108, “Of Seven New K^+ Channel Inhibitor Peptides of Centruroides bonito, α-KTx 2.24 Has a Picomolar Affinity for Kv1.2” (Toxins, 2023).
Read-outs that look alike come from different tables or passages of the source. Where a SMILES comes first, the peptide text is derived from it. Bridges are numbered along the chain shown (N, C = ends).

Assays:
Kv1.1 = biological target: Kv1.1; design: method as in 3 sources, ref 40 (CoTx1), 32 (CoTx2) ||| ref 33 = [33]; PMID 26921461; doi:10.1016/j.toxicon.2016.02.017; 33. Olamendi-Portugal T. Bartok A. Zamudio-Zuñiga F. Balajthy A. Becerril B. Panyi G. Possani L.D. Isolation, chemical and functional characterization of several new K+-channel blocking peptides from ||| ref 33 (II-x toxins), 40 (CoTx1); details: no reference given; read-out: Kd for Kv1.1 (positive control concentration equivalent to Kd); cited from earlier work
Kv1.3 [1] = details: no reference given; read-out: Kd for Kv1.3 (positive control concentration equivalent to Kd); cited from earlier work
Kv1.3 [2] = biological target: T1, Kv1.3 (Homo sapiens, UniProt P22001); experiment: Whole-cell patch-clamp of Kv1.3 currents in PHA-activated human T lymphocytes; format: cell-based
T1 construct: endogenous in cells
T1 sequence (P22001 whole entry): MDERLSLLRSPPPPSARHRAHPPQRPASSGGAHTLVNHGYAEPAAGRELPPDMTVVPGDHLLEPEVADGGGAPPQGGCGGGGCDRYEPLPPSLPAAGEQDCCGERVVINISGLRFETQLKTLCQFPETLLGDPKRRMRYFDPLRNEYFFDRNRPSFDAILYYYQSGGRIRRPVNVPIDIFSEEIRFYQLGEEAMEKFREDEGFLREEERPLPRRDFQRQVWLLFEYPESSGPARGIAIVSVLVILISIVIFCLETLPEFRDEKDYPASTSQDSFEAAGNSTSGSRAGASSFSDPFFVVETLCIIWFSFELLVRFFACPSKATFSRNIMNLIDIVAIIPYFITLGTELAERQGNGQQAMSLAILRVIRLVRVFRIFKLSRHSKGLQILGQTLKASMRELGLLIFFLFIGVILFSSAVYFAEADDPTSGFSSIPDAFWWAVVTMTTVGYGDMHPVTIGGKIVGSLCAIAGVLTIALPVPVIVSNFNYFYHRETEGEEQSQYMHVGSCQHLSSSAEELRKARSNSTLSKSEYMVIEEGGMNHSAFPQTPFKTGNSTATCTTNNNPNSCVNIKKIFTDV
Experimental: (§1) Macroscopic Kv1.1 and Kv1.2 currents were measured in transiently transfected CHO cells. For Kv1.3 current recording, human T lymphocytes were activated by Phytohemagglutinin A (PHA) to increase Kv1.3 channel expression, and micro-pipettes were filled with Ca^2+-free solution to prevent KCa3.1 channel activation. K^+ currents were evoked by applying 15-ms-long depolarization pulses to +50 mV from a holding potential of −120 mV except for Kv1.2, as it has highly variable activation kinetics; therefore, 15–500 ms-long pulses were applied to maximize the open probability of Kv1.2 channel. CboK peptide toxins were dissolved in a freshly prepared extracellular solution and applied to the whole-cell patch-clamped cells using a micro perfusion system at 200 μL/min flow rate.
Isochronal RCF data points obtained this way (isochronal RCF = I4ms/I4ms,0 where I4ms,0 and I4ms are the currents at 4 ms time point in the absence and presence of CboK peptides, respectively) at different toxin concentrations were fitted with the Hill equation to obtain concentration–response curves as shown in Figure 6H.
Human peripheral venous blood was acquired from anonymous healthy volunteers from the blood bank. Blood samples were collected by having approval from the Ethical Committee of the Hungarian Medical Research Council (36255-6/2017/EKU). PBMCs were separated by Histopaque 1077 (Sigma-Aldrich, Budapest, Hungary) separation technique, and isolated cells, at the density of 5 × 10^5 cells, were cultured in RPMI 1640 media (Gibco, Grand Island, NY, USA) supplemented with 10% FBS (Sigma-Aldrich, Budapest, Hungary), 2 mM L-glutamine, […], and […] penicillin in a humidified incubator at 37 °C and 5% CO2 for 3–6 days. A measure of 2, 5, or 10 μg/mL of Phytohemagglutinin A (PHA) (Sigma-Aldrich, Budapest, Hungary) was added in cultured cells to activate the PBMCs and upregulate the Kv1.3 expression.
(§2) The patch-clamp technique was used for measuring whole-cell currents in voltage-clamped mode using standard protocols. Electrophysiological recordings were acquired by using Multiclamp 700B amplifier connected to a personnel computer with an Axon Digidata1440 digitizer (Molecular Devices, Sunnyvale, CA, USA). Pipettes were pulled from GC150F-15 borosilicate capillaries (Harvard Apparatus, Kent, UK) having 3−5 MΩ tip resistance in the bath solution. All current recordings were carried out at room temperature (20−25 °C) and only those currents were recorded and subjected to analyses when the leak current at holding potential was <5% of peak current at the test potential. Current traces were lowpass-filtered by utilizing the built-in analog four-pole Bessel filters of the amplifiers and were sampled at 20 kHz which is at least twice the filter cut-off frequency. A gravity-driven perfusion system was used to perfuse the cells with control and test solutions and excess fluid was removed continuously through vacuum suction.

hKv1.1 = biological target: T2, hKv1.1 (Homo sapiens, UniProt Q09470); experiment: Whole-cell patch-clamp of Kv1.1 currents in transiently transfected CHO cells; format: cell-based
T2 construct: host or cells: CHO cells, transient transfection (Lipofectamine 2000)
T2 sequence (Q09470 whole entry): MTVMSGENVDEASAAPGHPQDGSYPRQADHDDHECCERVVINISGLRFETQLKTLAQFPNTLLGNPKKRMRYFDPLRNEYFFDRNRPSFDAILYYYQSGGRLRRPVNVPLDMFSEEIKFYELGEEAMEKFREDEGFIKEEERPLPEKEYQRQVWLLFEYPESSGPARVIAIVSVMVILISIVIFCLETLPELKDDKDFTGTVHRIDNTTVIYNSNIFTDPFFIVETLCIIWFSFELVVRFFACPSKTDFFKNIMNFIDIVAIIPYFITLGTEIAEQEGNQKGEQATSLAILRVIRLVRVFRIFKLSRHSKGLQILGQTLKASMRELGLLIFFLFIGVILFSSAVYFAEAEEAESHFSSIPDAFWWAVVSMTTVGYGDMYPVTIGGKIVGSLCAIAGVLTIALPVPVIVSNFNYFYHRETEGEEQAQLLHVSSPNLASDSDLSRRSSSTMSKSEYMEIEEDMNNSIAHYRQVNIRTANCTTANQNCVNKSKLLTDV
Experimental: as §1
(§3) CHO cells were transiently transfected by using Lipofectamine 2000 kit (Invitrogen, Carlsbad, CA, USA), as per the manufacturer’s protocol with vector pCMV6-AC-GFP (cat# RG211000 and RC222200; OriGene Technologies, Rockville, MD, USA) encoding hKv1.1 (hKCNA1 gene) or hKv1.2 (hKCNA2 gene) ion channels. Cells were grown under standard conditions in an incubator at 37 °C and 5% CO2 for 24 h. GFP-positive transfected cells were identified by utilizing a Nikon TMS fluorescence microscope (Nikon, Tokyo, Japan) using bandpass filters of 455–495 nm and 515–555 nm for excitation and emission, respectively.
as §2, with “suction. The extracellular solution (bath solution) contained 145 mM NaCl, 5.5 mM glucose, 5 mM KCl, 2.5 mM CaCl2, 1 mM MgCl2, and 10 mM HEPES, having pH of 7.35 and an osmolarity between 302 and 308 mOsM/L. Toxins were dissolved in bath solution at different molar concentrations and supplemented with 0.1 mg/mL of bovine serum albumin BSA (Sigma-Aldrich, Budapest, Hungary). The intracellular solution (pipette filling) was comprised of 140 mM KF, 2 mM MgCl2, 1 mM CaCl2, 10 mM HEPES, and 11 mM EGTA, with a pH of 7.22 and an osmolarity of ~295 mOsM/L.” for “suction.”
(§4) Generally, to evoke the Kv1.xcurrents, 15-ms-long depolarization pulses to +50 mV from a holding potential of −120 mV were applied, and the current traces were recorded after every 15 s. However, in the case of Kv1.2, due to its variable activation kinetics, the duration of the depolarization pulse was set between 15 and 500 ms to attain the saturated peak current.

hKv1.2 = biological target: T3, hKv1.2 (Homo sapiens, UniProt P16389); experiment: Whole-cell patch-clamp of Kv1.2 currents in transiently transfected CHO cells; format: cell-based; details: for Kd / Hill coefficient H, Kv1.2 block: Hill fit of RCF vs toxin concentration, n ≥ 3; for Kd: cumulative application, pulses to +50 mV from -120 mV, read-out: Kd for Kv1.2
T3 construct: GFP (C); host or cells: CHO cells, transient transfection (Lipofectamine 2000)
T3 sequence (P16389 whole entry): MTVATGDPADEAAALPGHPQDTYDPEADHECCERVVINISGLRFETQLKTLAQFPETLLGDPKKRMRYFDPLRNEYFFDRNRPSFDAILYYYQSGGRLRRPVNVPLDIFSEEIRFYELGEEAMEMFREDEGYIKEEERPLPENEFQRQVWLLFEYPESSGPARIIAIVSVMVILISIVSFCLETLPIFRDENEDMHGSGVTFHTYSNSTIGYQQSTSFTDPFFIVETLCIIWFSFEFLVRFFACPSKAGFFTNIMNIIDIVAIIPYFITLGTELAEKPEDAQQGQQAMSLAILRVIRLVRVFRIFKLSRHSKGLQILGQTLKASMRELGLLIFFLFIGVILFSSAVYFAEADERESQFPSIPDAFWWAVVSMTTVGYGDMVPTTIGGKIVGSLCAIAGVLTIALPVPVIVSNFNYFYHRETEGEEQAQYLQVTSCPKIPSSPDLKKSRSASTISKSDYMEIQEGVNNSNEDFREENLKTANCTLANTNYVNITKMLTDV
Experimental: as §1, §3
as §2, with “suction. The extracellular solution (bath solution) contained 145 mM NaCl, 5.5 mM glucose, 5 mM KCl, 2.5 mM CaCl2, 1 mM MgCl2, and 10 mM HEPES, having pH of 7.35 and an osmolarity between 302 and 308 mOsM/L. Toxins were dissolved in bath solution at different molar concentrations and supplemented with 0.1 mg/mL of bovine serum albumin BSA (Sigma-Aldrich, Budapest, Hungary). The intracellular solution (pipette filling) was comprised of 140 mM KF, 2 mM MgCl2, 1 mM CaCl2, 10 mM HEPES, and 11 mM EGTA, with a pH of 7.22 and an osmolarity of ~295 mOsM/L.” for “suction.”
as §4

Kv1.2 (Homo sapiens) = Kv1.2 (Homo sapiens) (UniProt P16389); details: cited from earlier work
Kv1.2 (Homo sapiens), sequence (P16389 whole entry): as above

Kv1.2 = biological target: Kv1.2; design: method as in 7 sources, ref 40 (CoTx1), 33 (II-x toxins), 45, 46 (Maurotoxin) ||| ref 32 (CoTx2), 33 (II-10.9), 34 (Ce3) ||| ref 33 (II-x toxins), 47, 48 (Pi4) ||| ref 33 (II-10.4), 32 (CoTx2) ||| ref 33 = [33]; PMID 26921461; doi:10.1016/j.toxicon.2016.02.017; 33. Olamendi-Portugal T. Bartok A. Zamudio-Zuñiga F. Balajthy A. Becerril B. Panyi G. Possani L.D. Isolation, chemical and functional characterization of several new K+-channel blocking peptides from ||| ...; details: cited from earlier work
Experimental: Macroscopic Kv1.1 and Kv1.2 currents were measured in transiently transfected CHO cells.

CoTx1, sequence (O46028 29-60): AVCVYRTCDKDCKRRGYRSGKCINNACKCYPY

CC[N+](CC)(CC)CC [TEA, tetraethylammonium, reference compound]
Kd (Kv1.1): 300 µM | Kd (Kv1.3 [1]): 10000 µM | reduction in Kv1.3 current by positive control (Kv1.3 [2]; 10 mM TEA, equilibrium block): Approximately 50% | reduction in Kv1.1 current by positive control (hKv1.1; 0.3 mM TEA, equilibrium block): Approximately 50%

CC[C@H](C)[C@H](NC(=O)[C@H](Cc1ccccc1)NC(=O)[C@@H](N)[C@@H](C)O)C(=O)N[C@@H](CC(N)=O)C(=O)N[C@H](C(=O)N[C@@H](CCCCN)C(=O)N[C@H]1CSSC[C@@H]2NC(=O)[C@H](CCCCN)NC(=O)[C@H](CCC(=O)O)NC(=O)CNC(=O)[C@H](C)NC(=O)[C@H](Cc3c[nH]cn3)NC(=O)[C@@H]3CCCN3C(=O)CNC(=O)[C@H](Cc3ccc(O)cc3)NC(=O)[C@H](CC(C)C)NC(=O)[C@H](CC(=O)O)NC(=O)[C@H](CCCCN)NC(=O)[C@@H]3CSSC[C@@H](C(=O)N[C@@H](Cc4ccc(O)cc4)C(=O)N[C@@H](CCCCN)C(=O)N4CCC[C@H]4C(=O)O)NC(=O)[C@H](CCCCN)NC(=O)[C@H](CSSC[C@H](NC(=O)[C@H](CCC(N)=O)NC(=O)[C@H](CCCCN)NC(=O)[C@@H]4CCCN4C(=O)[C@H](CO)NC(=O)[C@H]([C@@H](C)O)NC1=O)C(=O)N[C@@H](CC(C)C)C(=O)N[C@@H](CCCCN)C(=O)N1CCC[C@H]1C(=O)N3)NC(=O)[C@H](CCCCN)NC(=O)CNC(=O)[C@H](CC(N)=O)NC(=O)[C@H](CCSC)NC2=O)C(C)C [CboK4] (H-TFINVKCTSPKQCLKPCKDLYGPHAGEKCMNGKCKCYKP-OH; disulfide 7-29, 13-34, 17-36 (inferred); N-terminus and C-terminus assumed)
Kd (hKv1.2; equilibrium block): 0.000125 µM | Hill coefficient H, Kv1.2 block (hKv1.2): 1.0 | Hill coefficient H, Kv1.3 block (Kv1.3 [2]; Hill fit of isochronal RCF (4 ms), n ≥ 3): 0.94 | Kd (Kv1.3 [2]; Hill fit of isochronal RCF (current at 4 ms), 15-ms pulses to +50 mV from -120 mV, n ≥ 3, read-out: Kd for Kv1.3): 0.0217 µM | inhibition of Kv1.1 currents (hKv1.1; 100 nM toxin, equilibrium block, screening summary (Figure 4D), n ≥ 3): less than 10%

CoTx1 (from UniProt O46028)
Kd (Kv1.2 (Homo sapiens)): 0.027 µM

CC[C@H](C)[C@H](N)C(=O)N[C@@H](Cc1ccccc1)C(=O)N[C@H](C(=O)N[C@@H](CC(N)=O)C(=O)N[C@H](C(=O)N[C@@H](CCCCN)C(=O)N[C@H]1CSSC[C@@H]2NC(=O)[C@H](CCCCN)NC(=O)CNC(=O)CNC(=O)[C@H](C)NC(=O)[C@H](Cc3c[nH]cn3)NC(=O)[C@H](CCC(N)=O)NC(=O)CNC(=O)[C@H](Cc3ccccc3)NC(=O)[C@H](CCCNC(=N)N)NC(=O)[C@H](CC(=O)O)NC(=O)[C@H](CCCCN)NC(=O)[C@@H]3CSSC[C@@H](C(=O)N[C@@H](Cc4ccc(O)cc4)C(=O)N4CCC[C@H]4C(=O)O)NC(=O)[C@H](CCCCN)NC(=O)[C@H](CSSC[C@H](NC(=O)[C@H](CCC(N)=O)NC(=O)[C@H](CCC(N)=O)NC(=O)[C@@H]4CCCN4C(=O)[C@H](CC(C)C)NC(=O)[C@H](CO)NC1=O)C(=O)N[C@@H](CC(C)C)C(=O)N[C@@H](CCCNC(=N)N)C(=O)N1CCC[C@H]1C(=O)N3)NC(=O)[C@H](CCCCN)NC(=O)CNC(=O)[C@H](CC(N)=O)NC(=O)[C@H]([C@@H](C)CC)NC2=O)C(C)C)[C@@H](C)CC [CboK5] (H-IFINVKCSLPQQCLRPCKDRFGQHAGGKCINGKCKCYP-OH; disulfide 7-29, 13-34, 17-36 (inferred); N-terminus and C-terminus assumed)
inhibition of Kv1.2 current, representative traces (hKv1.2; 1 nM toxin, steady-state block, representative cell (Figure 4B, 5A)): ~ 75% | reversibility of Kv1.2 block (hKv1.2; 1 nM toxin, wash with toxin-free control solution): completely reversed | Kd (hKv1.2; equilibrium block): 0.000376 µM | Hill coefficient H, Kv1.2 block (hKv1.2): 1.2 | Kd (Kv1.3 [2]; approximate, concentration-response data not obtained for CboK5, read-out: Kd for Kv1.3 (CboK5)): 0.126 µM | effect on Kv1.1 currents (hKv1.1; 100 nM toxin): did not inhibit | Kd (hKv1.1; this study, screened at 100 nM, read-out: Kd Values Kv1.1 (symbol)): > 0.1 µM

Charybdotoxin [ChTx, reference compound]
reduction in Kv1.2 current by positive control (hKv1.2; 14 nM ChTx, equilibrium block): Approximately 50% | Kd (Kv1.2; no reference given, read-out: Kd for Kv1.2 (positive control concentration equivalent to Kd)): 0.014 µM

Maurotoxin
selectivity for Kv1.2 over Kv1.1, literature (Kv1.2; 46 (Maurotoxin), 40 (CoTx1)): ~ 56 fold | selectivity for Kv1.2 over Kv1.3, literature (Kv1.2; 46 (Maurotoxin), 40 (CoTx1)): 225 fold | Kd (Kv1.2; ref 40 (CoTx1), 33 (II-x toxins), 45, 46 (Maurotoxin), read-out: Kd for Kv1.2, literature): 0.0008 µM
